Experiments:
U-251 = experiment: Cytotoxicity against human U251 cells assessed as growth inhibition after 48 hrs by sulforhodamine B assay; type: functional; settings: U-251, 48 h
CCRF-CEM [1] = experiment: Cytotoxicity against human CCRF-CEM cells assessed as cell growth at 10 uM after 48 hrs by sulforhodamine B assay relative to control; type: functional; settings: read-out: Activity
NCI/ADR-RES [2] = experiment: Cytotoxicity against human NCI/ADR-RES cells assessed as cell growth at 0.1 uM after 48 hrs by sulforhodamine B assay relative to control; type: functional; settings: read-out: Activity
A498 [3] = experiment: Cytotoxicity against human A498 cells assessed as growth inhibition after 48 hrs by sulforhodamine B assay; type: functional; settings: A498, 48 h
SNB-19 = experiment: Cytotoxicity against human SNB19 cells assessed as growth inhibition after 48 hrs by sulforhodamine B assay; type: functional; settings: SNB-19, 48 h; for CC50: read-out: LC50 (the source's name)
NCI-H23 [4] = experiment: Cytotoxicity against human NCI-H23 cells assessed as cell growth at 0.01 uM after 48 hrs by sulforhodamine B assay relative to control; type: functional; settings: NCI-H23, 48 h, read-out: Activity
KM12 [5] = experiment: Cytotoxicity against human KM12 cells assessed as cell growth at 0.1 uM after 48 hrs by sulforhodamine B assay relative to control; type: functional; settings: KM12, 48 h, read-out: Activity
SF-268 [6] = experiment: Cytotoxicity against human SF268 cells assessed as cell growth at 10 uM after 48 hrs by sulforhodamine B assay relative to control; type: functional; settings: SF-268, 48 h, read-out: Activity
SR [7] = experiment: Cytotoxicity against human SR cells assessed as cell growth at 10 uM after 48 hrs by sulforhodamine B assay relative to control; type: functional; settings: read-out: Activity
NCI-H460 = experiment: Cytotoxicity against human NCI-H460 cells assessed as cell growth at 0.01 uM after 48 hrs by sulforhodamine B assay relative to control; type: functional; settings: NCI-H460, 48 h, read-out: Activity
K562 = experiment: Cytotoxicity against human K562 cells assessed as cell growth at 1 uM after 48 hrs by sulforhodamine B assay relative to control; type: functional; settings: K562, 48 h, read-out: Activity
KM12 [8] = experiment: Cytotoxicity against human KM12 cells assessed as cell growth at 0.01 uM after 48 hrs by sulforhodamine B assay relative to control; type: functional; settings: KM12, 48 h, read-out: Activity
SR [9] = experiment: Cytotoxicity against human SR cells assessed as cell growth at 0.01 uM after 48 hrs by sulforhodamine B assay relative to control; type: functional; settings: read-out: Activity
MDA-MB-435 = experiment: Cytotoxicity against human MDA-MB-435 cells assessed as cell growth at 0.1 uM after 48 hrs by sulforhodamine B assay relative to control; type: functional; settings: MDA-MB-435, 48 h, read-out: Activity
MCF7 = experiment: Cytotoxicity against human MCF7 cells assessed as growth inhibition after 48 hrs by MTT assay; type: functional, cell-based; settings: MCF7, 48 h
UACC-62 [10] = experiment: Cytotoxicity against human UACC62 cells assessed as cell growth at 1 uM after 48 hrs by sulforhodamine B assay relative to control; type: functional; settings: UACC-62, 48 h, read-out: Activity
NCI-H522 = experiment: Cytotoxicity against human NCI-H522 cells assessed as cell growth at 0.01 uM after 48 hrs by sulforhodamine B assay relative to control; type: functional; settings: NCI-H522, 48 h, read-out: Activity
MDA-MB-231 [11] = experiment: Cytotoxicity against human MDA-MB-231 cells assessed as cell growth at 0.1 uM after 48 hrs by sulforhodamine B assay relative to control; type: functional; settings: MDA-MB-231, 48 h, read-out: Activity
HOP-62 [12] = experiment: Cytotoxicity against human HOP62 cells assessed as cell growth at 0.01 uM after 48 hrs by sulforhodamine B assay relative to control; type: functional; settings: HOP-62, 48 h, read-out: Activity
Hs-578T = experiment: Cytotoxicity against human Hs 578T cells assessed as cell growth at 0.01 uM after 48 hrs by sulforhodamine B assay relative to control; type: functional; settings: read-out: Activity
TK-10 = experiment: Cytotoxicity against human TK10 cells assessed as cell growth at 0.01 uM after 48 hrs by sulforhodamine B assay relative to control; type: functional; settings: TK-10, 48 h, read-out: Activity
Malme-3M = experiment: Cytotoxicity against human MALME-3M cells assessed as cell growth at 0.1 uM after 48 hrs by sulforhodamine B assay relative to control; type: functional; settings: read-out: Activity
UO-31 = experiment: Cytotoxicity against human UO31 cells assessed as growth inhibition after 48 hrs by sulforhodamine B assay; type: functional; settings: UO-31, 48 h
NCI-H23 [13] = experiment: Cytotoxicity against human NCI-H23 cells assessed as cell growth at 0.1 uM after 48 hrs by sulforhodamine B assay relative to control; type: functional; settings: NCI-H23, 48 h, read-out: Activity
UACC-62 [14] = experiment: Cytotoxicity against human UACC62 cells assessed as cell growth at 0.1 uM after 48 hrs by sulforhodamine B assay relative to control; type: functional; settings: UACC-62, 48 h, read-out: Activity
A549 [15] = experiment: Cytotoxicity against human A549/ATCC cells assessed as cell growth at 1 uM after 48 hrs by sulforhodamine B assay relative to control; type: functional; settings: A549, 48 h, read-out: Activity
PC-3 = experiment: Cytotoxicity against human PC3 cells assessed as cell growth at 1 uM after 48 hrs by sulforhodamine B assay relative to control; type: functional; settings: PC-3, 48 h, read-out: Activity
CCRF-CEM [16] = experiment: Cytotoxicity against human CCRF-CEM cells assessed as cell growth at 0.1 uM after 48 hrs by sulforhodamine B assay relative to control; type: functional; settings: read-out: Activity
KM12 [17] = experiment: Cytotoxicity against human KM12 cells assessed as cell growth at 100 uM after 48 hrs by sulforhodamine B assay relative to control; type: functional; settings: KM12, 48 h, read-out: Activity
MDA-MB-231 [18] = experiment: Cytotoxicity against human MDA-MB-231 cells assessed as cell growth at 10 uM after 48 hrs by sulforhodamine B assay relative to control; type: functional; settings: MDA-MB-231, 48 h, read-out: Activity
HOP-62 [19] = experiment: Cytotoxicity against human HOP62 cells assessed as cell growth at 100 uM after 48 hrs by sulforhodamine B assay relative to control; type: functional; settings: HOP-62, 48 h, read-out: Activity
NCI/ADR-RES [20] = experiment: Cytotoxicity against human NCI/ADR-RES cells assessed as cell growth at 0.01 uM after 48 hrs by sulforhodamine B assay relative to control; type: functional; settings: read-out: Activity
A498 [21] = experiment: Cytotoxicity against human A498 cells assessed as cell growth at 100 uM after 48 hrs by sulforhodamine B assay relative to control; type: functional; settings: A498, 48 h, read-out: Activity
NCI-H226 = experiment: Cytotoxicity against human NCI-H226 cells assessed as cell growth at 0.01 uM after 48 hrs by sulforhodamine B assay relative to control; type: functional; settings: NCI-H226, 48 h, read-out: Activity
SF-268 [22] = experiment: Cytotoxicity against human SF268 cells assessed as cell growth at 0.1 uM after 48 hrs by sulforhodamine B assay relative to control; type: functional; settings: SF-268, 48 h, read-out: Activity
A549 [23] = experiment: Cytotoxicity against human A549/ATCC cells assessed as cell growth at 0.01 uM after 48 hrs by sulforhodamine B assay relative to control; type: functional; settings: A549, 48 h, read-out: Activity

Row | SMILES | LC50 (U-251) | TGI (U-251) | growth at 10 µM (CCRF-CEM [1]) | growth at 0.1 µM (NCI/ADR-RES [2]) | LC50 (A498 [3]) | TGI (A498 [3]) | TGI (SNB-19) | CC50 (SNB-19) | growth at 0.01 µM (NCI-H23 [4]) | growth at 0.1 µM (KM12 [5]) | growth at 10 µM (SF-268 [6]) | growth at 10 µM (SR [7]) | growth at 0.01 µM (NCI-H460) | growth at 1 µM (K562) | growth at 0.01 µM (KM12 [8]) | growth at 0.01 µM (SR [9]) | growth at 0.1 µM (MDA-MB-435) | IC50 (MCF7) | growth at 1 µM (UACC-62 [10]) | growth at 0.01 µM (NCI-H522) | further results
1 | COc1cc(-c2cc(/C=C/C(=O)c3ccc(F)c(F)c3)[nH]n2)cc(OC)c1OC | > 100 µM | 15.7 µM | 7% | 98% | > 100 µM | 7.13 µM | > 100 µM | > 100 µM | 95% | 92% | 17% | 11% | 106% | 102% | 96% | 100% | 90% | 2.5 µM | 88% | 96% | growth at 0.1 µM (MDA-MB-231 [11]): 96%; growth at 0.01 µM (HOP-62 [12]): 100%; growth at 0.01 µM (Hs-578T): 98%; growth at 0.01 µM (TK-10): 82%; growth at 0.1 µM (Malme-3M): 90%; LC50 (UO-31): > 100 µM; TGI (UO-31): 14.2 µM; growth at 0.1 µM (NCI-H23 [13]): 92%; growth at 0.1 µM (UACC-62 [14]): 93%; growth at 1 µM (A549 [15]): 82%; growth at 1 µM (PC-3): 70%; growth at 0.1 µM (CCRF-CEM [16]): 96%; growth at 100 µM (KM12 [17]): -48%; growth at 10 µM (MDA-MB-231 [18]): -38%; growth at 100 µM (HOP-62 [19]): 4%; growth at 0.01 µM (NCI/ADR-RES [20]): 100%; growth at 100 µM (A498 [21]): -40%; growth at 0.01 µM (NCI-H226): 99%; growth at 0.1 µM (SF-268 [22]): 94%; growth at 0.01 µM (A549 [23]): 101%
2 | COc1cc(-c2cc(/C=C/C(=O)c3ccc(Cl)c(Cl)c3)[nH]n2)cc(OC)c1OC | > 100 µM | 80.5 µM | 9% | 96% | > 100 µM | 43 µM | > 100 µM | > 100 µM | 95% | 93% | 60% | 8% | 105% | 101% | 96% | 104% | 96% | 3.2 µM | 96% | 92% | growth at 0.1 µM (MDA-MB-231 [11]): 102%; growth at 0.01 µM (HOP-62 [12]): 99%; growth at 0.01 µM (Hs-578T): 98%; growth at 0.01 µM (TK-10): 90%; growth at 0.1 µM (Malme-3M): 95%; LC50 (UO-31): > 100 µM; TGI (UO-31): > 100 µM; growth at 0.1 µM (NCI-H23 [13]): 92%; growth at 0.1 µM (UACC-62 [14]): 94%; growth at 1 µM (A549 [15]): 93%; growth at 1 µM (PC-3): 87%; growth at 0.1 µM (CCRF-CEM [16]): 98%; growth at 100 µM (KM12 [17]): 3%; growth at 10 µM (MDA-MB-231 [18]): 47%; growth at 100 µM (HOP-62 [19]): -74%; growth at 0.01 µM (NCI/ADR-RES [20]): 100%; growth at 100 µM (A498 [21]): -25%; growth at 0.01 µM (NCI-H226): 103%; growth at 0.1 µM (SF-268 [22]): 92%; growth at 0.01 µM (A549 [23]): 101%
3 | COc1cc(C(=O)/C=C/c2cc(-c3cc(OC)c(OC)c(OC)c3)n[nH]2)cc(OC)c1OC | 5.67 µM | 2.96 µM | -7% | 106% | 8.02 µM | 3.59 µM | 3.69 µM | 8.2 µM | 100% | 103% | -45% | 12% | 102% | 94% | 101% | 111% | 94% | 0.43 µM | 90% | 101% | growth at 0.1 µM (MDA-MB-231 [11]): 104%; growth at 0.01 µM (HOP-62 [12]): 97%; growth at 0.01 µM (Hs-578T): 93%; growth at 0.01 µM (TK-10): 99%; growth at 0.1 µM (Malme-3M): 101%; LC50 (UO-31): 5.16 µM; TGI (UO-31): 2.48 µM; growth at 0.1 µM (NCI-H23 [13]): 101%; growth at 0.1 µM (UACC-62 [14]): 95%; growth at 1 µM (A549 [15]): 84%; growth at 1 µM (PC-3): 74%; growth at 0.1 µM (CCRF-CEM [16]): 94%; growth at 100 µM (KM12 [17]): -81%; growth at 10 µM (MDA-MB-231 [18]): -53%; growth at 100 µM (HOP-62 [19]): -100%; growth at 0.01 µM (NCI/ADR-RES [20]): 105%; growth at 100 µM (A498 [21]): -98%; growth at 0.01 µM (NCI-H226): 99%; growth at 0.1 µM (SF-268 [22]): 99%; growth at 0.01 µM (A549 [23]): 97%
